Results published in ChEMBL document CHEMBL4825745, “Novel Substituted Piperidine-2,6-dione Derivatives for Treating Sickle Cell Disease and β-Thalassemia” (ACS Med Chem Lett, 2021).

Target: Protein Wiz (Homo sapiens, UniProt O95785)
Experiment: Induction of HiBit-tagged WIZ protein degradation expressed in HEK293T cells assessed as reduction in WIZ protein level incubated for 18 hrs by luminescence based assay
Assay type: cell-based

Chain of Protein Wiz (O95785 whole entry): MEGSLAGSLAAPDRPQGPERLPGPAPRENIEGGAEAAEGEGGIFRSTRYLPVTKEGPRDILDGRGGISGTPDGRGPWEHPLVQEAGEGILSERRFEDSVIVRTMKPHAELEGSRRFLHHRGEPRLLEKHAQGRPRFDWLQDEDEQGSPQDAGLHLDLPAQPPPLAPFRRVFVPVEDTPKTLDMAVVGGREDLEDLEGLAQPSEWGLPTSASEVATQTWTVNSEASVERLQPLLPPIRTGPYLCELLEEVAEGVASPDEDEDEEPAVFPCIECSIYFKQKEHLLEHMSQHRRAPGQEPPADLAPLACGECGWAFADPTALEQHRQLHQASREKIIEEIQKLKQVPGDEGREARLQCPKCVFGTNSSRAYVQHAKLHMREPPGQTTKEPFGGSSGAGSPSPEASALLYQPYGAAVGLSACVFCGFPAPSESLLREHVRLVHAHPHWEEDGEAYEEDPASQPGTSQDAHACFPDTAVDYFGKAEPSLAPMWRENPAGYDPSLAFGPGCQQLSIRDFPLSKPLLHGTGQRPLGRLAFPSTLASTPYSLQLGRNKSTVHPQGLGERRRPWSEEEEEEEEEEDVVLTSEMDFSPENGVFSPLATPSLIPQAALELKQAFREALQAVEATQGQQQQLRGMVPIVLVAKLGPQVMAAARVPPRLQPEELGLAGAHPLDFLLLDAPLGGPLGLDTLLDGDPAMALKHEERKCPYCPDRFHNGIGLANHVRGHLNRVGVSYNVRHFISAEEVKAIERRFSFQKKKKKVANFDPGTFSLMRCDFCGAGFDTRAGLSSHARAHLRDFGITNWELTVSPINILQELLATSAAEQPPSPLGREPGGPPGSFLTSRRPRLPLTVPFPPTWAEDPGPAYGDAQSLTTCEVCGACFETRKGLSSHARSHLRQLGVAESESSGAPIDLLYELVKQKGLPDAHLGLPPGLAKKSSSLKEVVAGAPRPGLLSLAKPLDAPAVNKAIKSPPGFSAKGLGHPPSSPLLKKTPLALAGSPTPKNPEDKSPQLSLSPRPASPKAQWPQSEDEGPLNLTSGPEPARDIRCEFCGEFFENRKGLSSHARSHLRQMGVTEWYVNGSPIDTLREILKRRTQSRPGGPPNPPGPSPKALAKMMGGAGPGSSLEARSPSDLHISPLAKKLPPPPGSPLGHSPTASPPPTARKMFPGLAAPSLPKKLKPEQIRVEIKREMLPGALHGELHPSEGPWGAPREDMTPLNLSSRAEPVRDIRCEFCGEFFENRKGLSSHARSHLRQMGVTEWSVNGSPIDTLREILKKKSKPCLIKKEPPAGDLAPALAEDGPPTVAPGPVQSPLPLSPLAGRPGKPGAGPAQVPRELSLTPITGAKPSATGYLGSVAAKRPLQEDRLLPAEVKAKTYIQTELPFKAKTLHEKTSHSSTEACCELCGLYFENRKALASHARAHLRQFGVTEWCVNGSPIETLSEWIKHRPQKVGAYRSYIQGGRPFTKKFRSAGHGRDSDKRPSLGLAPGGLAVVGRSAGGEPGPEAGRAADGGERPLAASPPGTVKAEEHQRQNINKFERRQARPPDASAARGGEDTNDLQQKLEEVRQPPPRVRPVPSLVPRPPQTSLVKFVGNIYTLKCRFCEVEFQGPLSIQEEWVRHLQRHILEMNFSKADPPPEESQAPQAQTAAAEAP

Row | SMILES | AC50
1 | CC(C)(C)c1ccc(CN2CCCC[C@@H]2COc2ccc3c(c2)CN(C2CCC(=O)NC2=O)C3=O)cc1 (stereo partly specified) | 0.083 nM
2 | COc1ccc(CN2CCCC[C@@H]2COc2ccc3c(c2)CN(C2CCC(=O)NC2=O)C3=O)c(OC)c1 (stereo partly specified) | 0.52 nM
3 | O=C1CCC(N2Cc3cc(OC[C@H]4CCCCN4Cc4ccc(C5=CCOCC5)cc4)ccc3C2=O)C(=O)N1 (stereo partly specified) | 0.35 nM
4 | O=C1CCC(N2Cc3cc(OC[C@H]4CCCCN4Cc4ccc(C5(C(F)(F)F)CC5)cc4)ccc3C2=O)C(=O)N1 (stereo partly specified) | 0.22 nM
5 | O=C1CCC(N2Cc3cc(OC[C@H]4CCCCN4Cc4ccc(N5CCCCC5)cc4)ccc3C2=O)C(=O)N1 (stereo partly specified) | 0.37 nM
6 | O=C1CCC(N2Cc3cc(OC[C@H]4CCCCN4Cc4ccc5c(c4)OC(F)(F)O5)ccc3C2=O)C(=O)N1 (stereo partly specified) | 0.47 nM
